Test results published in patent US20120157401A1, “METHODS FOR TREATING NEUROFIBROMATOSIS” (PTC Therapeutics, Inc., priority 2009, published 2012).

What was measured:
[1] = test system: soluble VEGF121 and VEGF165 isoforms; assay: ELISA of soluble VEGF production in nontransformed keratinocytes during hypoxia or normoxia; assay type: cell-based, human; conditions: 72 hours
Method: (§1) Experimental Design. Nontransformed normal human keratinocyte cell cultures were established under normoxic conditions (21% oxygen). […] At the completion of treatment, cells were assessed for viability with an ATP assay and conditioned media were evaluated for VEGF protein levels by ELISA (as described in Section 9.1.1.1).

[2] = test system: normal human keratinocyte; assay: ATP viability assay in keratinocytes; assay type: cell-based; conditions: any concentration tested
Method: as §1

[3] = test system: human VEGF121 and VEGF165; assay: HT1080 xenograft time course: pathologic plasma human VEGF; assay type: in vivo
Method: Experimental Design. HT1080 cells (5×10^6 cells/mouse) were implanted subcutaneously in male athymic nude mice.
Tumor size was measured by calipers immediately pre-treatment and at the time of sacrifice on Day 1, 2, or 3 (5 mice per group per day). At sacrifice, the plasma was collected for assay of pathologic human VEGF concentration using an ELISA that recognizes human VEGF121 and VEGF165 (as described in Section 9.1.1.1).

HT1080 cells = assay: Kinetics of S-phase transit by BrdU incorporation in HT1080 cells; assay type: cell-based, human
Method: Experimental Design. HT 1080 cells are exposed to BrdU (bromodeoxyuridine, a synthetic nucleoside that is an analogue of thymidine and is incorporated into DNA during the S phase of cell division) (FITC BrdU Flow Kit, BD Pharmingen catalog #552598). Cells are grown and treated as described in Section 9.3.1.3 above with the exception that one hour prior to harvesting by trypsinization, BrdU (final concentration 1 μM) is added to each culture for 1 hour. Cells actively replicating DNA during this brief time incorporate the BrdU into the DNA, which can then be quantitated. BrdU content is quantitated with using the FITC BrdU Flow Kit as instructed by the manufacturer. The process includes fixation (paraformaldehyde) and DNA staining with 7-AAD (7-amino-actinomycin D) followed by incubation with a fluoro-tagged anti-BrdU antibody that specifically recognizes BrdU incorporated into DNA. Dual channel FACS analysis permits assessment of both the DNA content of individual cells and the rate of transit across the S-phase, which is assessed based upon BrdU incorporation over the one hour treatment period.

HT1080 spheroids = assay: 3-dimensional growth of HT1080 spheroids (BrdU / 7-AAD FACS, morphology); assay type: cell-based, human
Method: Experimental Design. HT1080 cells grown as a monolayer were trypsinized and seeded onto a 0.75% agar noble base to prevent the cells from attaching to the bottom of the tissue culture plate and to allow/promote the cells to self-adhere and grow as 3-dimensional spheroids. […] The cells were incubated for 22 and 45 hours at 37° C., in the presence of a 10% CO2 atmosphere. Spheroids were visually checked daily for morphological changes and a medium was replenished two times per week. […] These pulse labeled spheroids were then harvested, washed and trypsinized (triple action solution, Gibco), pelleted and prepared for FACS analysis with a FITC BrdU Flow Kit, (BD Pharmingen). Cells were fixed and permeabilized with paraformadehyde and DNA stained with 7-AAD followed by incubation with an antibody which specifically recognizes […] incorporated into DNA. As described in Section 9.3.1.4. Cells were analyzed and sorted by 7-AAD signal (DNA content) to determine cell cycle phase, and BrdU content (percent actively synthesizing DNA).
Spheroids, prepared as above, were treated with either vehicle alone (0.5% DMSO v/v final) added to the media or a Compounds provided herein (10 nM or 50 nM final concentration) in media to which vehicle has been added.

[4] = molecular target: human-ether-a-go-go-related gene (hERG) current (Homo sapiens, UniProt Q12809); assay: Higher throughput hERG assay; assay type: cell-based
human-ether-a-go-go-related gene (hERG) current, sequence (Q12809 whole entry): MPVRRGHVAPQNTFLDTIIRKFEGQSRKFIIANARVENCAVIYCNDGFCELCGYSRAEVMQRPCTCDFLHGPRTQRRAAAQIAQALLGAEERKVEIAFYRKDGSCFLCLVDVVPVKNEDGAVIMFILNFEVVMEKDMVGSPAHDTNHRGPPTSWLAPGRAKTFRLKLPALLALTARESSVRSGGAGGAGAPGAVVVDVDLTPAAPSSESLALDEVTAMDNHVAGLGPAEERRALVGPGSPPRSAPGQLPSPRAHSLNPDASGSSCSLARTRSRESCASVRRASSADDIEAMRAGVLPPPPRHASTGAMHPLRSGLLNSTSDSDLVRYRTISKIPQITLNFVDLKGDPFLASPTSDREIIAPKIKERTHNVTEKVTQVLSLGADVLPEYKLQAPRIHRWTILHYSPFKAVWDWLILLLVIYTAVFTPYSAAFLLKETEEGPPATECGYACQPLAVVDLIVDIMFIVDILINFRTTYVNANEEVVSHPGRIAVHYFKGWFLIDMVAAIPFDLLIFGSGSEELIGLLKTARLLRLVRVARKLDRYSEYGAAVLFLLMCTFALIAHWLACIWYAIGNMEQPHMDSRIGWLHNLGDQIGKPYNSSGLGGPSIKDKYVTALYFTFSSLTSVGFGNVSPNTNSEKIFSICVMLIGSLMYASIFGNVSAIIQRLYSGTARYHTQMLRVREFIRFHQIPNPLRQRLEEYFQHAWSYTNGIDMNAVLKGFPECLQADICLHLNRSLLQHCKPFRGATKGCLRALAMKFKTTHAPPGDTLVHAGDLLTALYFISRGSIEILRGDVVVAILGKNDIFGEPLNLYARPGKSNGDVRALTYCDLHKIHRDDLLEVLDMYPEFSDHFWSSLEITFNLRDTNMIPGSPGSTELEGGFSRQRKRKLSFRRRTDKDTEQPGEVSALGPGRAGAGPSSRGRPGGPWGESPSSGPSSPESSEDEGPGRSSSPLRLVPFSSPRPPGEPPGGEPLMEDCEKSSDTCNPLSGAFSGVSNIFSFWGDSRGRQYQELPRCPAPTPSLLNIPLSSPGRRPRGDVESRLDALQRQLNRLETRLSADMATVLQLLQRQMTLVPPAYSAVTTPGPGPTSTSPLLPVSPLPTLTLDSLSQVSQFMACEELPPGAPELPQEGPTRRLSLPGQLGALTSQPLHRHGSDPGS

[5] = In vitro plasma protein binding of 14C-radiolabeled Compound #10; assay type: in vitro ADME, mice, rats, dogs, monkeys, and humans; conditions: mouse, rat, dog, monkey, human, all species, 0.05 to 50 μg/mL, read-out: Plasma protein binding, overall mean
CYP1A2 = molecular target: T1, CYP1A2 (Homo sapiens, UniProt P05177); assay: CYP inhibition: CYP1A2; assay type: in vitro ADME; conditions: human hepatic microsomes or recombinant isoenzymes
T1 construct: host or cells: human hepatic microsomes or recombinant isoenzyme (not distinguished)
T1 sequence (P05177 whole entry): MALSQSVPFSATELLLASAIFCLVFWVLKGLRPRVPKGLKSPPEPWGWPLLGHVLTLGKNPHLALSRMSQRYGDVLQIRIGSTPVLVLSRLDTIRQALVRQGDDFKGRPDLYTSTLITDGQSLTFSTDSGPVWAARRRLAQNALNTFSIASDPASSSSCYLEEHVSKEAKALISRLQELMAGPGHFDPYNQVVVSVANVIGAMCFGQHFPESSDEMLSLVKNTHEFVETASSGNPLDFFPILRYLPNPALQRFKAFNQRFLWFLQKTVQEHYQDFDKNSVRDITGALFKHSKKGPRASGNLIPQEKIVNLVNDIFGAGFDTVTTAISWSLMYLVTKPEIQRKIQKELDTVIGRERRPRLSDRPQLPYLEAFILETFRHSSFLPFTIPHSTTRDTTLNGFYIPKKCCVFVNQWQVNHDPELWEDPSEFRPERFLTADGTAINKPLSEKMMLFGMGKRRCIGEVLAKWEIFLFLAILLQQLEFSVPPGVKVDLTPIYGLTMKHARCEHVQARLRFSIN
Source text: It is possible that in certain clinical trial subjects, such agents may need to be adjusted for dosing or replaced by alternative agents that are not metabolized by CYP2D6, particularly when such agents may have a low therapeutic index.

[6] = Single-dose oral toxicity study in rats; assay type: in vivo
Method: (§2) A battery of genotoxicity studies was also performed. […] The L23 vehicle was used.
Because maximal exposure occurred at 100 mg/kg, this dose is considered the NOAEL for 1 day of dosing.

[7] = 7-day oral toxicity study in rats; assay type: in vivo
Method: as §2
Maximal exposures occurred at a dose of 120 mg/kg/day.

[8] = Phase 1 multiple-dose study in healthy volunteers: safety and tolerability; assay type: in vivo, human
Source text: Methods. The trial was a Phase 1, randomized, escalating multiple dose, single center study conducted in 2 stages.

[9] = Patients: hearing function (word recognition, pure tone threshold, BAER); assay type: in vivo, human
Source text: Hearing function: Assessments of word recognition and pure tone thresholds may be direct measures of patient functioning that define symptomatic consequences of the presence of VS (see, e.g., Halpin et al., Otol Neurotol., January 2006, 27(1):110-6). Standard clinical criteria for definition of hearing response (H-R) based on a 50-word hearing test (see, e.g., Thornton et al., J. Speech Hear. Res., September 1978, 21(3): 507-18) can be employed for word recognition tests.
Hearing Tests. Subjects may undergo hearing tests at screening, and at various times during the treatment protocol. Hearing assessment may be determined in standard clinical fashion and may include:
Determination of word recognition scores using a standardized list of test words, i.e., the 50-item Central Institute for the Deaf [CID] list W-22, recorded) (Thornton et al., J. Speech Hear Res., September 1978, 21(3): 507-18);
Pure-tone averages calculated as the average of the pure-tone thresholds at 500, 1000, 2000, and 3000 Hz;
Brainstem auditory evoked response (BAERs) reported as the latency of wave V, if present; and […]

COc1ccc(C2c3[nH]c4ccc(Cl)cc4c3CCN2C(=O)Oc2ccc(Cl)cc2)cc1 (racemic) [Compound #10]
Maximal decrease in VEGF concentration in conditioned media ([1]; hypoxic (1% oxygen)): 57% | Mean VEGF concentration in conditioned media at maximal decrease ([1]; hypoxic (1% oxygen)): 606 pg/mL | Decrease in VEGF concentration in conditioned media ([1]; normoxic): 21% | Mean VEGF concentration in conditioned media in the presence of compound ([1]; normoxic): 192 pg/mL | Toxicity (ATP viability) [2]: No toxicity was observed | Course of pathologic plasma human VEGF concentrations ([3]; Days 2 and 3): continued to decline | Pathologic plasma human VEGF levels vs control animals ([3]; by Day 1): numerically lower than in control animals | Percentage of cells residing in S-phase (HT1080 cells; HT1080, 18-hour treatment, increasing doses): net increase | BrdU incorporation of individual cells vs DMSO control (HT1080 cells; HT1080, one-hour BrdU pulse after 18-hour treatment): incorporated less BrdU | Cell cycle distribution of HT1080 spheroids (HT1080 spheroids; 24 or 48 hours): not affected | Percentage of spheroid cells that incorporated BrdU (HT1080 spheroids; 24 or 48 hours): not significantly altered | Morphology of spheroids (HT1080 spheroids; maintained in the presence of compound for three weeks, data not shown): no obvious morphological changes | Inhibition of hERG current [4]: negative for meaningful inhibition | fraction unbound [5]: ≤ 0.005 | Inhibition of CYP1A2 (CYP1A2): No meaningful inhibition | Dose of maximal exposure ([6]; Sprague Dawley, rat, in vivo, po, 1 day): 100 mg/kg | NOAEL at 1 day ([6]; Sprague Dawley, rat, in vivo, rats, single oral gavage, read-out: NOAEL for 1 day of dosing): 100 mg/kg | Clinical or clinical pathological toxicities ([6]; rats, single oral 100, 200, or 400 mg/kg): no notable clinical or clinical pathological toxicities | Dose of maximal exposures ([7]; Sprague Dawley, rat, in vivo, po, 7 days): 120 mg/kg/day | NOAEL for 7-days ([7]; female rats): 120 mg/kg/day | NOAEL for 7-days ([7]; male rats): 40 mg/kg/day | Mean prothrombin time (PT) and activated partial thromboplastin time (aPTT) ([7]; rat, in vivo, 120 mg/kg/day): increases | Grade of treatment emergent adverse events and laboratory abnormalities ([8]; healthy volunteers, 7 days): generally Grade 1 | QTc prolongation ([8]; healthy volunteers, 7 days): no meaningful QTc prolongation | Maximum tolerated dose ([8]; through the highest dose level tested ([…] TID)): No MTD was established | Hearing function in patients (FIG. 39) [9]: stabilized hearing function
